# According to patent publication US9139581B2 (PORTOLA PHARMACEUTICALS, INC., priority 2008, dated 2015):
# Molecular target: T1, full length active recombinant SYK enzyme (Homo sapiens, UniProt P43405)
# T1 construct: full length active recombinant SYK enzyme (Millipore, Calif.); purchased Millipore
# Assay: Inhibition of Syk tyrosine phosphorylation activity (LANCE TR-FRET)
# Format: biochemical
# Settings: Table 3; 1 nM SYK, 100 μM ATP; read-out: Syk IC50 code
# Method: The in vitro and in vivo human syk activities of the inventive compounds can be determined by various procedures known in the art, such as a test for their ability to inhibit the activity of human plasma syk. […] Inhibition of Syk Tyrosine Phosphorylation Activity Potency of candidate molecules for inhibiting syk tyrosine phosphorylation activity is assessed by measuring the ability of a test compound to inhibit syk-mediated tyrosine phosphorylation of a syk-specific substrate. SYK tyrosine phosphorylation activity is measured using the LANCETM Technology developed by Perkin Elmer Life and Analytical Sciences (Boston, Mass.). LANCETM refers to homogeneous time resolved fluorometry applications using techniques such as time-resolved fluorescence resonance energy transfer assay (TR-FRET) (see generally for procedures in Perkin Elmer Application Note-How to Optimize a Tyrosine Kinase Assay Using Time Resolved Fluorescence-Based LANCE Detection, wwww.perkinelmer.com/lifesciences). The assay principle involves detection of a phosphorylated substrate using energy transfer from a phosphospecific europium-labeled antibody to streptavidin-allophycocyanin as an acceptor. To test the ability of candidate molecules to inhibit SYK tyrosine phosphorylation activity, molecules are reconstituted in 30% DMSO and serially diluted 1:3 with the final dilution containing DMSO in the absence of the candidate molecule. The final DMSO concentration in the assay is 3%. Kinase assays are performed as a two part reaction. The first reaction is a kinase reaction and which comprises of a candidate molecule, full length active recombinant SYK enzyme (Millipore, Calif.) and biotin-labeled SYK-specific substrate biotin-[…]-OH. The second reaction involves termination of the kinase reaction and the simultaneous addition of the detection reagents-europium-labeled anti-phosphotyrosine reagent (Eu-W1024-PY100, Perkin Elmer, Boston, Mass.) and Streptavidin-Allophycocyanin detection reagent (SA-APC, Prozyme, Calif.). The kinase reaction is performed in a black U-bottom 96-well microtitre plate. […] The reaction is allowed to proceed for 1 hour at room temperature. […] The detection reagents are added to the reaction mixture at the following dilutions-1:500 for Eu-W1024-PY100 and 1:250 for SA-APC. The kinase reaction is terminated by the addition of 50 μL quench buffer containing the detection reagents. The detection is allowed to proceed for 1 hr at room temperature. Detection of the phosphorlated substrate in the absence and presence of inhibitors is measured in the TR-FRET instrument, Analyst HT ([…], Sunnyvale, Calif.) and the condition for measurements are set up using CriterionHost Release 2.0 ([…], Sunnyvale, Calif.). […] IC50s were derived by non-linear regression analysis.
row,IC50,Compound
1,100 to 1000 nM,"CC(=O)N1CCN(c2ccc(Nc3nc(N4CCCC(C(N)=O)C4)c4nc[nH]c4n3)cc2)CC1 (stereo not drawn) [Example 118, 1-(2-(4-(4-acetylpiperazin-1-yl)phenylamino)-9H-purin-6-yl)piperidine-3-carboxamide]"
2,10 to 100 nM,"NCCOCCNc1nc(Nc2ccc3cn[nH]c3c2)nc2[nH]ccc12 [Example 92, N^4-(2-2-(aminoethoxy)ethyl)-N^2-(1H-indazol-6-ylamino)-7H-pyrrolo[2,3-d]pyrimidine-2,4-diamine]"
3,> 1000 nM,"Cc1cc2c(NC3CCC3)nc(Nc3ccc4cn[nH]c4c3)nc2[nH]1 [Example 59, N4-cyclobutyl-N2-(1H-indazol-6-yl)-6-methyl-7H-pyrrolo[2,3-d]pyrimidine-2,4-diamine]"
4,10 to 100 nM,"OC1CCN(c2ccc(Nc3nc(NC4CCC4)c4cc[nH]c4n3)cc2)CC1 [Example 56, 1-(4-(4-(cyclobutylamino)-7H-pyrrolo[2,3-d]pyrimidin-2-ylamino)phenyl)piperidin-4-ol]"
5,100 to 1000 nM,"CC(=O)N(C)c1ccc(Nc2nc(NCCN)c3cc[nH]c3n2)cc1 [Example 64, N-(4-(4-(2-aminoethylamino)-7H-pyrrolo[2,3-d]pyrimidin-2-ylamino)phenyl)-N-methylacetamide]"
6,10 to 100 nM,"OCCNc1nc(Nc2ccc3cn[nH]c3c2)nc2[nH]ccc12 [Example 91, N^2-(1H-indazol-6-ylamino)-N^4-(2-hydroxyethyl)-7H-pyrrolo[2,3-d]pyrimidine-2,4-diamine]"
7,10 to 100 nM,"N[C@H]1CC[C@@H](Nc2nc(Nc3ccc4c(c3)CCC(=O)N4)ncc2C2CC2)CC1 [Example 144, 6-(4-((1s,4s)-4-aminocyclohexylamino)-5-cyclopropylpyrimidin-2-ylamino)-3,4-dihydroquinolin-2(1H)-one]"
8,> 1000 nM,"6-(5-fluoro-4-(3-oxopiperazin-1-yl)pyrimidin-2-ylamino)-3,4-dihydroquinolin-2(1H)-one [Example 123]"
9,100 to 1000 nM,CS(=O)(=O)Cc1cccc(Nc2nc(NC3CCC3)c3cc[nH]c3n2)c1 [Example 77]
10,> 1000 nM,"CC(=O)N1CCN(c2ccc(Nc3nc(NCC4CCNCC4)c4c(-c5ccncc5)c[nH]c4n3)cc2)CC1 [Example 44, 1-(4-(4-(4-(piperidin-4-ylmethylamino)-5-(pyridin-4-yl)-7H-pyrrolo[2,3-d]pyrimidin-2-ylamino)phenyl)piperazin-1-yl)ethanone]"
11,> 1000 nM,"COC(=O)C(N)C1CCN(c2nc(Nc3ccc4c(c3)CCC(=O)N4)ncc2F)CC1 (stereo not drawn) [Example 135, Methyl 2-amino-2-(1-(5-fluoro-2-(2-oxo-1,2,3,4-tetrahydroquinolin-6-ylamino)pyrimidin-4-yl)piperidin-4-yl)acetate]"
12,> 1000 nM,"CC(C)(C)OC(=O)N1CCC(Nc2nc(Nc3ccc4cn[nH]c4c3)nc3[nH]ccc23)CC1 [Example 57, tert-butyl 4-(2-(1H-indazol-6-ylamino)-7H-pyrrolo[2,3-d]pyrimidin-4-ylamino)piperidine-1-carboxylate]"
13,100 to 1000 nM,"NCC1CCN(c2nc(Nc3ccc4c(c3)CCC(=O)N4)ncc2C2CC2)CC1 [Example 139, 6-(4-(4-(aminomethyl)piperidin-1-yl)-5-cyclopropylpyrimidin-2-ylamino)-3,4-dihydroquinolin-2(1H)-one]"
14,10 to 100 nM,"CC(=O)N(C)c1ccc(Nc2nc(NC3CC3)c3c(C#N)c[nH]c3n2)cc1 [Example 105, N-(4-(5-cyano-4-(cyclopropylamino)-7H-pyrrolo[2,3-d]pyrimidin-2-ylamino)phenyl)-N-methylacetamide]"
15,> 1000 nM,"CC(=O)N(C)c1ccc(Nc2ncc(F)c(N3CCC(CNC(=O)OC(C)(C)C)CC3)n2)cc1 [Example 28, tert-butyl (1-(5-fluoro-2-(4-(N-methylacetamido)phenylamino)pyrimidin-4-yl)piperidin-4-yl)methylcarbamate]"
16,10 to 100 nM,"O=C1CCc2cc(Nc3nc(NC4CC4)c4c(-c5ccncc5)c[nH]c4n3)ccc2N1 [Example 48, 6-(4-(cyclopropylamino)-5-(pyridin-4-yl)-7H-pyrrolo[2,3-d]pyrimidin-2-ylamino)-3,4-dihydroquinolin-2(1H)-one]"
17,10 to 100 nM,"CC(=O)N1CCN(c2ccc(Nc3nc(NC4CC4)c4c(-c5ccncc5)c[nH]c4n3)cc2)CC1 [Example 4, 1-(4-(4-(4-(cyclopropylamino)-5-(pyridin-4-yl)-7H-pyrrolo[2,3-d]pyrimidin-2-ylamino)phenyl)piperazin-1-yl)ethanone]"
18,100 to 1000 nM,"CC(=O)c1c[nH]c2nc(Nc3ccc4cn[nH]c4c3)nc(NC3CC3)c12 [Example 42, 1-(2-(1H-indazol-6-ylamino)-4-(cyclopropylamino)-7H-pyrrolo[2,3-d]pyrimidin-5-yl)ethanone]"
19,100 to 1000 nM,"CC(=O)N(C)c1ccc(Nc2nc(NCCCCCN)c3cc[nH]c3n2)cc1 [Example 65, N-(4-(4-(5-aminopentylamino)-7H-pyrrolo[2,3-d-]pyrimidin-2-ylamino)phenyl)-N-methylacetamide]"
20,10 to 100 nM,"O=S(=O)(c1ccc(Nc2nc(NC3CCC3)c3cc[nH]c3n2)cc1)N1CCC(O)CC1 [Example 52, 1-(4-(4-(cyclobutylamino)-7H-pyrrolo[2,3-d]pyrimidin-2-ylamino)phenylsulfonyl)piperidin-4-ol]"
21,100 to 1000 nM,"c1cc(-c2c[nH]c3nc(Nc4ccc5cn[nH]c5c4)nc(NC4CC4)c23)ccn1 [Example 43, N4-cyclopropyl-N2-(1H-indazol-6-yl)-5-(pyridin-4-yl)-7H-pyrrolo[2,3-d]pyrimidine-2,4-diamine]"
22,100 to 1000 nM,"O=C1CNc2nc(Nc3ccc4cn[nH]c4c3)nc(NC3CCC3)c21 [Example 51, 2-(1H-indazol-6-ylamino)-4-(cyclobutylamino)-6,7-dihydropyrrolo[2,3-d]pyrimidin-5-one]"
23,> 1000 nM,"CC(=O)N1CCN(c2ccc(Nc3nc(NC4CCS(=O)(=O)C4)c4cc[nH]c4n3)cc2)CC1 (stereo not drawn) [Example 100A, 1-(4-(4-(4-(1,1-dioxy-tetrahydrothiophen-3-ylamino)-7H-pyrrolo[2,3-d]pyrimidin-2-ylamino)phenyl)piperazin-1-yl)ethanone]"
24,100 to 1000 nM,"CC(=O)N1CCN(c2ccc(Nc3nc(NCC4CCNCC4)c4c(C#N)c[nH]c4n3)cc2)CC1 [Example 45, 2-(4-(4-acetylpiperazin-1-yl)phenylamino)-4-(piperidin-4-ylmethylamino)-7H-pyrrolo[2,3-d]pyrimidine-5-carbonitrile]"
25,100 to 1000 nM,COC(=O)N(C)c1ccc(Nc2nc(NC3CC3)c3cc[nH]c3n2)cc1 [Example 73]

# Same assay, conditions: Table 4; 1 nM SYK, 100 μM ATP; read-out: syk IC50
row,IC50,Compound
1,> 1000 nM,"CC(=O)N1CCN(c2ccc(Nc3ncc(F)c(N4CCCCC4CN)n3)cc2)CC1 (stereo not drawn) [Example 34, 1-(4-(4-(4-(2-(aminomethyl)piperidin-1-yl)-5-fluoropyrimidin-2-ylamino)phenyl)piperazin-1-yl)ethanone]"
2,100 to 1000 nM,"NC(=O)C1CCCN(c2nc(Nc3ccc4cn[nH]c4c3)ncc2F)C1 (stereo not drawn) [Example 26, 1-(2-(1H-indazol-6-ylamino)-5-fluoropyrimidin-4-yl)piperidine-3-carboxamide]"
3,> 1000 nM,"CC(=O)N(C)c1ccc(Nc2ncc(F)c(N3CCC(CNC(=O)OC(C)(C)C)CC3)n2)cc1 [Example 28, tert-butyl (1-(5-fluoro-2-(4-(N-methylacetamido)phenylamino)pyrimidin-4-yl)piperidin-4-yl)methylcarbamate]"
4,10 to 100 nM,"NCC1CCN(c2nc(Nc3ccc(S(N)(=O)=O)cc3)ncc2F)CC1 [Example 32, 4-(4-(4-(aminomethyl)piperidin-1-yl)-5-fluoropyrimidin-2-ylamino)benzenesulfonamide]"
5,> 1000 nM,"CC(C)(C)OC(=O)NCC1CCCCN1c1nc(Nc2ccc3cn[nH]c3c2)ncc1F (stereo not drawn) [Example 35, tert-butyl (1-(2-(1H-indazol-6-ylamino)-5-fluoropyrimidin-4-yl)piperidin-2-yl)methylcarbamate]"
6,> 1000 nM,"CC(=O)N1CCN(c2ccc(Nc3nc(N4CCCCC4)c4cc[nH]c4n3)cc2)CC1 [Example 20, 1-(4-(4-(4-(piperidin-1-yl)-7H-pyrrolo[2,3-d]pyrimidin-2-ylamino)phenyl)piperazin-1-yl)ethanone]"
7,100 to 1000 nM,"COc1cc(Nc2ncc(F)c(N3CCC(CN)CC3)n2)cc(OC)c1OC [Example 17, 4-(4-(aminomethyl)piperidin-1-yl)-5-fluoro-N-(3,4,5-trimethoxyphenyl)pyrimidin-2-amine]"
8,> 1000 nM,"CC(C)(C)OC(=O)NCC1CCN(c2nc(Nc3ccc(C(N)=O)cc3)ncc2F)CC1 [Example 30, tert-butyl (1-(2-(4-carbamoylphenylamino)-5-fluoropyrimidin-4-yl)piperidin-4-yl)methylcarbamate]"
